Legend:
Assay in all cases: KINOMEscan
Type in all cases: binding
Details in all cases: read-out: % Ctrl
EGFR(E746-A750del) = target: T1, EGFR(E746-A750del) (Homo sapiens, UniProt P00533, DEL746-750)
T1 construct: purchased DiscoveRx KINOMEscan

LTK = target: T2, LTK (Homo sapiens, UniProt P29376)
T2 construct: purchased DiscoveRx KINOMEscan

CHEK1 = target: T3, CHEK1 (Homo sapiens, UniProt O14757)
T3 construct: purchased DiscoveRx KINOMEscan

MLK3 = target: T4, MLK3 (Homo sapiens, UniProt Q16584)
T4 construct: purchased DiscoveRx KINOMEscan

ERK5 = target: T5, ERK5 (Homo sapiens, UniProt Q13164)
T5 construct: purchased DiscoveRx KINOMEscan
T5 sequence (Q13164 whole entry): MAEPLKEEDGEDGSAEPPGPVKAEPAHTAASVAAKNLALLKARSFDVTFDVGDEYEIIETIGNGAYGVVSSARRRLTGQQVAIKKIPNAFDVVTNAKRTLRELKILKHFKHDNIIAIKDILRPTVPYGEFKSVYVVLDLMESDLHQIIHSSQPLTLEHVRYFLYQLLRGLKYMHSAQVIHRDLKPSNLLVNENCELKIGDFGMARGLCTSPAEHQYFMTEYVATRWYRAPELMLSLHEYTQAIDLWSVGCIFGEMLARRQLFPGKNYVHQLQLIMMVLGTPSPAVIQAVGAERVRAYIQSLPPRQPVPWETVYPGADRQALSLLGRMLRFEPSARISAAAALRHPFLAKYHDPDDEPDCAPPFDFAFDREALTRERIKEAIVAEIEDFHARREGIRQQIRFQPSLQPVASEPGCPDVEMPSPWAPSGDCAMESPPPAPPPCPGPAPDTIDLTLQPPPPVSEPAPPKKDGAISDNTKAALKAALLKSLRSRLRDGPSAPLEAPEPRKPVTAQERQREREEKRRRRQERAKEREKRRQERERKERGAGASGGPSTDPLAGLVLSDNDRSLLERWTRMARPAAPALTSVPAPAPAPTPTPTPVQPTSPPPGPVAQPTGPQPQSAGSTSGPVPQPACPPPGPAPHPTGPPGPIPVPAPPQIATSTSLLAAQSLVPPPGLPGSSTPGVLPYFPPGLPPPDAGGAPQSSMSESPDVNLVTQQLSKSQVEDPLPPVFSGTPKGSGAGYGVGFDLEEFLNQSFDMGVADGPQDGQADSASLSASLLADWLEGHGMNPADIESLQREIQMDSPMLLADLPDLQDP

TYK2(JH1D.-cat.) = target: T6, TYK2(JH1D.-cat.) (Homo sapiens, UniProt P29597)
T6 construct: TYK2(JH1D.-cat.); purchased DiscoveRx KINOMEscan
T6 sequence (P29597 871-1187 limits assumed): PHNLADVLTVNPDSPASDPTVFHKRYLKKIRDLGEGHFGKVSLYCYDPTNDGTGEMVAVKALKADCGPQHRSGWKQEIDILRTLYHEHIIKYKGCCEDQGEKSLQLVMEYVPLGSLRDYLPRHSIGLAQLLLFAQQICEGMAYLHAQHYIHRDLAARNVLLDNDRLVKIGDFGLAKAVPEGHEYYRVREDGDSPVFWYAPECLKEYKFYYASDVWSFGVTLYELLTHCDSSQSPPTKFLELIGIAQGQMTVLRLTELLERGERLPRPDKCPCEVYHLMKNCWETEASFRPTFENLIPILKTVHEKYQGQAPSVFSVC

PLK2 = target: T7, PLK2 (Homo sapiens, UniProt Q9NYY3)
T7 construct: purchased DiscoveRx KINOMEscan

BTK = target: T8, BTK (Homo sapiens, UniProt Q06187)
T8 construct: purchased DiscoveRx KINOMEscan

DDR1 = target: T9, DDR1 (Homo sapiens, UniProt Q08345)
T9 construct: purchased DiscoveRx KINOMEscan

YANK3 = target: T10, YANK3 (Homo sapiens, UniProt Q86UX6)
T10 construct: purchased DiscoveRx KINOMEscan

EGFR(L861Q) = target: T11, EGFR(L861Q) (Homo sapiens, UniProt P00533, L861Q)
T11 construct: purchased DiscoveRx KINOMEscan

TRKA = target: T12, TRKA (Homo sapiens, UniProt P04629)
T12 construct: purchased DiscoveRx KINOMEscan
T12 sequence (P04629 33-796): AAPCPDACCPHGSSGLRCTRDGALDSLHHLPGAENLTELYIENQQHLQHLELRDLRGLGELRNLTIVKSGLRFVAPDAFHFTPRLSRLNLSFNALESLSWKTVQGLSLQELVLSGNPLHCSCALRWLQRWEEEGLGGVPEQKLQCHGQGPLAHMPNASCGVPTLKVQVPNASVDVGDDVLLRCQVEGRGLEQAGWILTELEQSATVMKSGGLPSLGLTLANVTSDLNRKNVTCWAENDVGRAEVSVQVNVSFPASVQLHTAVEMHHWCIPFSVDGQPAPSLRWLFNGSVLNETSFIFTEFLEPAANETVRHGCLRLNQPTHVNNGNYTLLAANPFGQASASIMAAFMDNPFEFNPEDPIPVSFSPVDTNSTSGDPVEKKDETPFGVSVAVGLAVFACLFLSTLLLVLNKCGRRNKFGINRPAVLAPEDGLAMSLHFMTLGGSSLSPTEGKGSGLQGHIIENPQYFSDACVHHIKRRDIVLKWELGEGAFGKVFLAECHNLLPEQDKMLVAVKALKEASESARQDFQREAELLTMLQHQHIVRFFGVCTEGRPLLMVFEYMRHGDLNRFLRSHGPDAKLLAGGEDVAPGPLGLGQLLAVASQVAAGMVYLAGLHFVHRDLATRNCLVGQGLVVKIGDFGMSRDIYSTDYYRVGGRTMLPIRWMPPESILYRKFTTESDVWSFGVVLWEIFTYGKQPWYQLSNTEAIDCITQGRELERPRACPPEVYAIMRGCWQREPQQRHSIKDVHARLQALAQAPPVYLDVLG

BMPR1B = target: T13, BMPR1B (Homo sapiens, UniProt O00238)
T13 construct: purchased DiscoveRx KINOMEscan

MST4 = target: T14, MST4 (Homo sapiens, UniProt Q9P289)
T14 construct: purchased DiscoveRx KINOMEscan
T14 sequence (Q9P289 whole entry): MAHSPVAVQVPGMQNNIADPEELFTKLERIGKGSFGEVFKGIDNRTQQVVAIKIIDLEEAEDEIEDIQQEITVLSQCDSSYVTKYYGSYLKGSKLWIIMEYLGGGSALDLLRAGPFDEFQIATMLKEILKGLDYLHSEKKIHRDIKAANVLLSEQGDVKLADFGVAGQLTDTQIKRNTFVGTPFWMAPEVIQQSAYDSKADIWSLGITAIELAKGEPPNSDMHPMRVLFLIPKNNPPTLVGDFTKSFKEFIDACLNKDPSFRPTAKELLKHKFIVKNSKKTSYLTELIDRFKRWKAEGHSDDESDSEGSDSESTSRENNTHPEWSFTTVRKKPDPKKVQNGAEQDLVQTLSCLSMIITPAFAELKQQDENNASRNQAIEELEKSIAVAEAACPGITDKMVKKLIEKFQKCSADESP

DYRK2 = target: T15, DYRK2 (Homo sapiens, UniProt Q92630)
T15 construct: purchased DiscoveRx KINOMEscan
T15 sequence (Q92630 whole entry): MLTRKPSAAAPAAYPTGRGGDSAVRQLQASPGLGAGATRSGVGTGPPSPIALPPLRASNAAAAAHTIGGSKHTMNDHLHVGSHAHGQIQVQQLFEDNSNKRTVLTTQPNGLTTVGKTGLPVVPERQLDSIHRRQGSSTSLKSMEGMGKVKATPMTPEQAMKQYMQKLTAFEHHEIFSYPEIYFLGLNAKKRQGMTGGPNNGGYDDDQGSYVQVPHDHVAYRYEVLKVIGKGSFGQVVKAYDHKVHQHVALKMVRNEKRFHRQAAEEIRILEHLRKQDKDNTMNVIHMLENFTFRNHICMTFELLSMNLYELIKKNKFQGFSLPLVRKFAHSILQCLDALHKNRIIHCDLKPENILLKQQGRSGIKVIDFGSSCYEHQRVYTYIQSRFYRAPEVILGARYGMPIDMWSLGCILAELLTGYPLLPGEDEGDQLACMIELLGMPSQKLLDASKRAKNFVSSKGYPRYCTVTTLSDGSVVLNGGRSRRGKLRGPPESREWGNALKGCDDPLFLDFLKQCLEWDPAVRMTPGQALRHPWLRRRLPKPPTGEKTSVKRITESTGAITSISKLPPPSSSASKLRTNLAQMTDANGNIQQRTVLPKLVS

MST2 = target: T16, MST2 (Homo sapiens, UniProt Q13188)
T16 construct: purchased DiscoveRx KINOMEscan

PRKR = target: T17, PRKR (Homo sapiens, UniProt P19525)
T17 construct: purchased DiscoveRx KINOMEscan

STK39 = target: T18, STK39 (Homo sapiens, UniProt Q9UEW8)
T18 construct: purchased DiscoveRx KINOMEscan

STK33 = target: T19, STK33 (Homo sapiens, UniProt Q9BYT3)
T19 construct: purchased DiscoveRx KINOMEscan

ABL1(F317I)-P = target: T20, ABL1(F317I)-P (Homo sapiens, UniProt P00519, F317I)
T20 construct: purchased DiscoveRx KINOMEscan

KIT(D816H) = target: T21, KIT(D816H) (Homo sapiens, UniProt P10721, D816H)
T21 construct: purchased DiscoveRx KINOMEscan
T21 sequence (P10721 26-976 D816H): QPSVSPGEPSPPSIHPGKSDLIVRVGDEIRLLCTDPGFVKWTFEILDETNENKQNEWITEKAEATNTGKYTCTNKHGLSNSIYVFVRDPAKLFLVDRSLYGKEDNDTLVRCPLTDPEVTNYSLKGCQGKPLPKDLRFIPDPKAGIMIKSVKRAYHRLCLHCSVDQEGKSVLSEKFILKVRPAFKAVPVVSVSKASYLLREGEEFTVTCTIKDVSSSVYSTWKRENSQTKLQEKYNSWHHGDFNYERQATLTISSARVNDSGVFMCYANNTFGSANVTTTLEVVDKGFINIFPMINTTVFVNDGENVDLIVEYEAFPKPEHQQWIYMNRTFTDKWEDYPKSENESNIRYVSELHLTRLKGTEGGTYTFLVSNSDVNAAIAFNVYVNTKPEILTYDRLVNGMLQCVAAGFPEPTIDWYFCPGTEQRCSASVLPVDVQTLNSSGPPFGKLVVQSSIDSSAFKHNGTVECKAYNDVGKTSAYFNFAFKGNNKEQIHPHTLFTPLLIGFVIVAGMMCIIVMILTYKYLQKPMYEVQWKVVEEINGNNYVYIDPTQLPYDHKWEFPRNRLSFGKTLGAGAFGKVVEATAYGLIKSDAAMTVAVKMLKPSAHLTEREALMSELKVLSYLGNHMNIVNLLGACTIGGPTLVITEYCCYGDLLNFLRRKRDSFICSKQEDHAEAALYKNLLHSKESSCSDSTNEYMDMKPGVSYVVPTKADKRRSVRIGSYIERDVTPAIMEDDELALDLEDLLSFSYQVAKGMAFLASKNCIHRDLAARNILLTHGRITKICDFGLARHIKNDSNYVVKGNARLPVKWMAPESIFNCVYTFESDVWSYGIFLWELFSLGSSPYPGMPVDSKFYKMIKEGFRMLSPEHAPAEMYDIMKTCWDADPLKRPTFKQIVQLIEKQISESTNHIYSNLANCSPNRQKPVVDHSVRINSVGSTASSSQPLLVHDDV

PKMYT1 = target: T22, PKMYT1 (Homo sapiens, UniProt Q99640)
T22 construct: purchased DiscoveRx KINOMEscan

FRK = target: T23, FRK (Homo sapiens, UniProt P42685)
T23 construct: purchased DiscoveRx KINOMEscan

CDK4-cyclinD1 = target: T24, CDK4-cyclinD1 (Homo sapiens, UniProt P11802)
T24 construct: purchased DiscoveRx KINOMEscan
T24 sequence (P11802 whole entry): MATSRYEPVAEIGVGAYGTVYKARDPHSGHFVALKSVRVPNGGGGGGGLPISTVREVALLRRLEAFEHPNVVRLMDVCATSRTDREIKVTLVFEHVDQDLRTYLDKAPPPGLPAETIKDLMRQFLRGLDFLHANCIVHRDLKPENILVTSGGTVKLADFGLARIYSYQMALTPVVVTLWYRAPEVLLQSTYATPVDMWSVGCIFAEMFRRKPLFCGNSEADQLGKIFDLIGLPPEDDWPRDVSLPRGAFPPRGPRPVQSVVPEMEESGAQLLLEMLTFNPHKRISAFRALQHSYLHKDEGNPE
T24 sequence (P24385 whole entry partner): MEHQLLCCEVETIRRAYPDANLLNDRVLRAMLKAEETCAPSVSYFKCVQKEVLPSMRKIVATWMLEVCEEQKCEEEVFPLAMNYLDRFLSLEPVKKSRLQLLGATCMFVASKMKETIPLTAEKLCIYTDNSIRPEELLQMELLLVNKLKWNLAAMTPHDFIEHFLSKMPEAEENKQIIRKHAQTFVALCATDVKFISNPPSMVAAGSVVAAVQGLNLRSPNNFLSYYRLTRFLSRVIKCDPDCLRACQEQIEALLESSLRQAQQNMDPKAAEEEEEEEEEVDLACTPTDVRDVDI

LRRK2(G2019S) = target: T25, LRRK2(G2019S) (Homo sapiens, UniProt Q5S007, G2019S)
T25 construct: purchased DiscoveRx KINOMEscan

SBK1 = target: T26, SBK1 (Homo sapiens, UniProt Q52WX2)
T26 construct: purchased DiscoveRx KINOMEscan

MST1R = target: T27, MST1R (Homo sapiens, UniProt Q04912)
T27 construct: purchased DiscoveRx KINOMEscan

INSR = target: T28, INSR (Homo sapiens, UniProt P06213)
T28 construct: purchased DiscoveRx KINOMEscan

NEK10 = target: T29, NEK10 (Homo sapiens, UniProt Q6ZWH5)
T29 construct: purchased DiscoveRx KINOMEscan

DCAMKL1 = target: T30, DCAMKL1 (Homo sapiens, UniProt O15075)
T30 construct: purchased DiscoveRx KINOMEscan

BRK = target: T31, BRK (Homo sapiens, UniProt Q13882)
T31 construct: purchased DiscoveRx KINOMEscan

ARK5 = target: T32, ARK5 (Homo sapiens, UniProt O60285)
T32 construct: purchased DiscoveRx KINOMEscan

MTOR = target: T33, MTOR (Homo sapiens, UniProt P42345)
T33 construct: purchased DiscoveRx KINOMEscan

RIPK5 = target: T34, RIPK5 (Homo sapiens, UniProt Q6XUX3)
T34 construct: purchased DiscoveRx KINOMEscan

WNK4 = target: T35, WNK4 (Homo sapiens, UniProt Q96J92)
T35 construct: purchased DiscoveRx KINOMEscan

MET = target: T36, MET (Homo sapiens, UniProt P08581)
T36 construct: purchased DiscoveRx KINOMEscan

EGFR(G719C) = target: T37, EGFR(G719C) (Homo sapiens, UniProt P00533, G719C)
T37 construct: purchased DiscoveRx KINOMEscan

PFCDPK1(P.falciparum) = target: T38, PFCDPK1(P.falciparum) (Plasmodium falciparum, UniProt P62344)
T38 construct: purchased DiscoveRx KINOMEscan

SGK2 = target: T39, SGK2 (Homo sapiens, UniProt Q9HBY8)
T39 construct: purchased DiscoveRx KINOMEscan

ICK = target: T40, ICK (Homo sapiens, UniProt Q9UPZ9)
T40 construct: purchased DiscoveRx KINOMEscan

TRKB = target: T41, TRKB (Homo sapiens, UniProt Q16620)
T41 construct: purchased DiscoveRx KINOMEscan

TNK2 = target: T42, TNK2 (Homo sapiens, UniProt Q07912)
T42 construct: purchased DiscoveRx KINOMEscan

PRKG1 = target: T43, PRKG1 (Homo sapiens, UniProt Q13976)
T43 construct: purchased DiscoveRx KINOMEscan

CSK = target: T44, CSK (Homo sapiens, UniProt P41240)
T44 construct: purchased DiscoveRx KINOMEscan

T1 sequence (P00533 with tags, fused parts or gaps DEL746-750 limits assumed): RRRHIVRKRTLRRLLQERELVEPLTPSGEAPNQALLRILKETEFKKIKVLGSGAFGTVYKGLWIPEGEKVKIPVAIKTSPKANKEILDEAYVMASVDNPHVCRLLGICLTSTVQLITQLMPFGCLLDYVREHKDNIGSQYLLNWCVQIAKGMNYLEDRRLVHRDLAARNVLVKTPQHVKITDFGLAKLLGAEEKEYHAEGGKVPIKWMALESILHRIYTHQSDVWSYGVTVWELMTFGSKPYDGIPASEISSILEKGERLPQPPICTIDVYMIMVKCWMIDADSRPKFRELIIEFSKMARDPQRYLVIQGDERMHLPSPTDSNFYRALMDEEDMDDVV

In the case of `CN1CCC(CNc2ccc3ncc(C(=O)Nc4cccc(OC(F)(F)F)c4)n3n2)CC1` [Cpd 2], the remaining binding at 1 µM (EGFR(E746-A750del)) is reported as 77%, the remaining binding at 1 µM (LTK) is reported as 93% and the remaining binding at 1 µM (CHEK1) is reported as 86%. It also gave a remaining binding at 1 µM (MLK3) of 100%, a remaining binding at 1 µM (ERK5) of 100% and a remaining binding at 1 µM (TYK2(JH1D.-cat.)) of 65%. It also gave a remaining binding at 1 µM (PLK2) of 91%, a remaining binding at 1 µM (BTK) of 100% and a remaining binding at 1 µM (DDR1) of 92%. The remaining binding at 1 µM (YANK3) was 99%, the remaining binding at 1 µM (EGFR(L861Q)) was 94% and the remaining binding at 1 µM (TRKA) was 82%. It also gave a remaining binding at 1 µM (BMPR1B) of 99%, a remaining binding at 1 µM (MST4) of 100% and a remaining binding at 1 µM (DYRK2) of 86%. The remaining binding at 1 µM (MST2) was 100%, the remaining binding at 1 µM (PRKR) was 83% and the remaining binding at 1 µM (STK39) was 99%. For the same molecule, the remaining binding at 1 µM (STK33) was 100%, the remaining binding at 1 µM (ABL1(F317I)-P) was 94% and the remaining binding at 1 µM (KIT(D816H)) was 91%. For the same molecule, the remaining binding at 1 µM (PKMYT1) was 75%, the remaining binding at 1 µM (FRK) was 100% and the remaining binding at 1 µM (CDK4-cyclinD1) was 100%. For the same molecule, the remaining binding at 1 µM (LRRK2(G2019S)) was 93%, the remaining binding at 1 µM (SBK1) was 100% and the remaining binding at 1 µM (MST1R) was 100%. For the same molecule, the remaining binding at 1 µM (INSR) was 100%, the remaining binding at 1 µM (NEK10) was 85% and the remaining binding at 1 µM (DCAMKL1) was 85%. For the same molecule, the remaining binding at 1 µM (BRK) was 99%, the remaining binding at 1 µM (ARK5) was 88% and the remaining binding at 1 µM (MTOR) was 100%. It also gave a remaining binding at 1 µM (RIPK5) of 84%, a remaining binding at 1 µM (WNK4) of 100% and a remaining binding at 1 µM (MET) of 100%. The remaining binding at 1 µM (EGFR(G719C)) was 82%, the remaining binding at 1 µM (PFCDPK1(P.falciparum)) was 88% and the remaining binding at 1 µM (SGK2) was 100%. The remaining binding at 1 µM (ICK) was 93%, the remaining binding at 1 µM (TRKB) was 89% and the remaining binding at 1 µM (TNK2) was 99%. For the same molecule, the remaining binding at 1 µM (PRKG1) was 100% and the remaining binding at 1 µM (CSK) was 100%.

Reference: article PMC7407272, “Induction of Lysosome Membrane Permeabilization as a Therapeutic Strategy to Target Pancreatic Cancer Stem Cells” (Cancers, 2020)
